Data set [1] relates to Pancreatic cancer cells (CAPAN-2, PANC-1, MIAPACA-2, BXPC-3, HPAC, and CFPAC-1). Briefly: MTS proliferation assay, pancreatic cancer cells. The data set is classed as cell-based. The settings on record: 48 h. The procedure: Fig. 4 N4 suppresses pancreatic cancer cell proliferation and migration and induces apoptosis. A Pancreatic cancer cells (CAPAN-2, PANC-1, MIAPACA-2, BXPC-3, HPAC, and CFPAC-1) and normal cells (HPNE, HAF) were incubated with the indicated concentration of N4 for 48 h. MTS assays were performed to detect the N4-mediated inhibition of cell proliferation. Data are shown as mean ± SD, *P < 0.05, **P < 0.01, ***P < 0.001, ****P < 0.0001, n.s. not significant by one-way ANOVA followed by multiple comparisons. B, C CAPAN-2, PANC-1, and MIAPACA-2 cells were treated with N4 (B) or C188-9 (C) for 7 days. The cells fixed and stained, and colony numbers were calculated. Experiments were carried out in triplicate with identical results obtained. […] Apoptotic cells were analyzed as described in Materials and Methods. […] In F, after 48 h transfection, transfected cells were seeded in 96-well plates, and cells were enumerated at day 1, day 2, and day 4, In G, different cells transfected with different siRNA were treated with the indicated concentrations of N4, and cell viability measured after a 48 h treatment. Data are expressed as mean ± SD, *P < 0.05, ***P < 0.001, n.s. not significant by one-way ANOVA followed by multiple comparisons. […] Data are expressed as mean ± SD, *P < 0.05, ***P < 0.001, n.s. not significant; Student’s t tests were performed. […]

Another data set relates to PANC-1. Put plainly: PANC-1 subcutaneous tumor growth xenograft model. The data set is classed as in vivo. The procedure:
Fig. 5 N4 suppresses pancreatic cancer growth in vivo. PANC-1 cells were injected into the right flank of BALB/c-nude mice. After the volume of tumor nodules reached 200–300 mm^3, the mice were randomly assigned to the indicated groups and were injected intraperitoneally daily with vehicle (n = 7), 40 mg/kg/d C188-9 (n = 7), 10 mg/kg/d N4 (n = 8), or 20 mg/kg/d N4 (n = 8). The mice were sacrificed after treatment for 20 days and the tumors from each group of mice were excised. A, B Tumor volumes were measured every 4 days. Tumor volumes were calculated by the formula: length × width^2 × 0.52. […] C After treatment for 20 days, the tumors from each group of mice were excised and photographed. D After the experiments, all the tumors were weighted. […] E Tumor samples were collected, and protein was extracted for western blot analysis. p-STAT3 (Y705), p-STAT3(S727), STAT3, and CMYC were detected, with GAPDH used as the loading control. Immunohistochemistry examinations were performed in the different treatment groups, p-STAT3 (Y705), Ki-67 and cleaved caspase3 were quantified (F) and photographed (G). The scale bar denotes 20 μm. Data are expressed as mean ± SD, **P < 0.01, ****P < 0.0001 and n.s. not significant by one-way ANOVA.
BALB/c-nude, male, 6–8-week-old mice were obtained from the Animal Center of East China Normal University. All animal experimental protocols were approved by the Animal Investigation Committee of the Institute of Biomedical Sciences, East China Normal University. PANC-1 cells (5 × 10^6) were suspended in PBS with 50% Matrigel and injected into the right flank of the mice. Treatment began after the tumor nodules reached 150–250 mm^3 in volume. The tumor-bearing mice were randomly assigned to four groups and treated with the indicated compounds. The tumor volume and mice body weight were measured after 4 days. The tumor volume (V) was calculated as length × width × width × 0.52. At the end of experiment, the mice were sacrificed. Solid tumors were removed and processed for immunohistochemistry analysis.

Take `COc1cc2c(cc1C(=O)Nc1cccc3cccnc13)CCC1C(C)(C)C(=O)C(C#N)=C[C@]21C` (stereo partly shown) [N4]: the “proliferation of pancreatic cancer cells” value in data set [1] was “effectively inhibited”. The bodyweight of mice entry with PANC-1 (10 and 20 mg/kg/d) was “did not affect”. In addition, the “pancreatic cancer growth (tumor volume)” value in the data set on PANC-1 (10 and 20 mg/kg/d, intraperitoneally daily, 20 days) is “significantly inhibited”. For the same compound, the “Hematoxylin and eosin staining of main organs, signs of toxicity” value in the data set on PANC-1 (mouse, in vivo) is on record as “did not produce morphological signs of toxicity”.

The values above are taken from article PMC7906907, “Targeting STAT3 by a small molecule suppresses pancreatic cancer progression” (Oncogene, 2021).
